The values below come from US20230024283A1, “HERBICIDAL COMPOUNDS” (SYNGENTA CROP PROTECTION AG, priority 2020, published 2023).

What all share (assay): Post-emergence herbicidal glasshouse test
Common to all, as to type: in vivo
Common to all, as to conditions: post-emergence spray, evaluated after 13 days, five-point scale

Experiment [1] relates to Abutilon theophrasti (ABUTH). Here is the method: (§1) Seeds of a variety of test species are sown in standard soil in pots (Ipomoea hederacea (IPOHE), Abutilon theophrasti (ABUTH), Amaranthus retoflexus (AMARE), Echinochloa crus-galli (ECHCG), Setaria faberi (SETFA)). After 8 days cultivation under controlled conditions in a glasshouse (at 24/16° C., day/night; 14 hours light; 65% humidity), the plants are sprayed with an aqueous spray solution derived from the formulation of the technical active ingredient in acetone / water (50:50) solution containing 0.5% Tween 20 (polyoxyethelyene sorbitan monolaurate, CAS RN 9005-64-5). Compounds are applied at 1000 g/ha unless otherwise stated. The test plants are then grown in a glasshouse under controlled conditions in a glasshouse (at 24/16° C., day/night; 14 hours light; 65% humidity) and watered twice daily. After 13 days the test is evaluated for the percentage damage caused to the plant. The biological activities are shown in the following table on a five-point scale (5=81-100%; 4=61-80%; 3=41-60%; 2=21-40%; 1=0-20%).

Experiment [2] concerns Amaranthus retoflexus (AMARE). The protocol:
as §1

Experiment [3] deals with Echinochloa crus-galli (ECHCG). The protocol: as §1
The test system of experiment [4] is Ipomoea hederacea (IPOHE). The protocol: as §1
For another experiment, the system named is Setaria faberi (SETFA). Here is the method:
as §1

As to `Cc1cc(F)cc(-c2cc(C#N)cc(C(F)(F)F)c2O)c1` [Compound 1.162], the “percentage damage caused to the plant, ABUTH” value in experiment [1] (1000 g/ha) is on record as 1 (1=0-20%). Besides, in experiment [2] (1000 g/ha), the “percentage damage caused to the plant, AMARE” value is on record as 2 (2=21-40%). For the same molecule, the “percentage damage caused to the plant, ECHCG” value in experiment [3] (1000 g/ha) was 1 (1=0-20%). In addition, the “percentage damage caused to the plant, IPOHE” value in experiment [4] (1000 g/ha) was 3 (3=41-60%). For the same molecule, the “percentage damage caused to the plant, SETFA” value in the experiment on Setaria faberi (SETFA) (1000 g/ha) was 1 (1=0-20%).
For the molecule `N#Cc1cc(-c2ccc(F)c(Cl)c2)c(O)c(C(F)(F)F)c1` [Compound 1.160], in experiment [1] (1000 g/ha), the “percentage damage caused to the plant, ABUTH” value is 1 (1=0-20%). The “percentage damage caused to the plant, AMARE” value in experiment [2] (1000 g/ha) is given as 5 (5=81-100%). For the same molecule, the “percentage damage caused to the plant, ECHCG” value in experiment [3] (1000 g/ha) is given as 1 (1=0-20%). Further, the “percentage damage caused to the plant, IPOHE” value in experiment [4] (1000 g/ha) is given as 2 (2=21-40%). Besides, the “percentage damage caused to the plant, SETFA” value with Setaria faberi (SETFA) (1000 g/ha) is 1 (1=0-20%).
Take `N#Cc1cc(-n2cc(C(F)(F)F)cn2)c(O)c(C(F)(F)F)c1` [Compound 1.190]: the “percentage damage caused to the plant, ABUTH” value in experiment [1] (1000 g/ha) is given as 1 (1=0-20%). Moreover, the “percentage damage caused to the plant, AMARE” value in experiment [2] (1000 g/ha) is 3 (3=41-60%). Further, in experiment [3] (1000 g/ha), the “percentage damage caused to the plant, ECHCG” value is 1 (1=0-20%). In experiment [4] (1000 g/ha), the “percentage damage caused to the plant, IPOHE” value is on record as 1 (1=0-20%). Further, the “percentage damage caused to the plant, SETFA” value with Setaria faberi (SETFA) (1000 g/ha) is on record as 1 (1=0-20%).
Consider `CC(C)C(=O)Oc1c(Cl)cc(C#N)cc1-c1cccc(F)c1` [Compound 2.006], for which the “percentage damage caused to the plant, ABUTH” value in experiment [1] (1000 g/ha) was 4 (4=61-80%). Further, the “percentage damage caused to the plant, AMARE” value in experiment [2] (1000 g/ha) is 3 (3=41-60%). In addition, the “percentage damage caused to the plant, ECHCG” value in experiment [3] (1000 g/ha) is listed as 1 (1=0-20%). In addition, in experiment [4] (1000 g/ha), the “percentage damage caused to the plant, IPOHE” value was 1 (1=0-20%). For the same molecule, the “percentage damage caused to the plant, SETFA” value in the experiment with Setaria faberi (SETFA) (1000 g/ha) is recorded as 1 (1=0-20%).
With `CC(=O)Oc1c(-c2cccc(F)c2)cc(C#N)cc1C(F)(F)F` [Compound 2.002], in experiment [1] (1000 g/ha), the “percentage damage caused to the plant, ABUTH” value was 5 (5=81-100%). The “percentage damage caused to the plant, AMARE” value in experiment [2] (1000 g/ha) is 5 (5=81-100%). The “percentage damage caused to the plant, ECHCG” value in experiment [3] (1000 g/ha) is listed as 4 (4=61-80%). Also, in experiment [4] (1000 g/ha), the “percentage damage caused to the plant, IPOHE” value was 5 (5=81-100%). Also, the “percentage damage caused to the plant, SETFA” value with Setaria faberi (SETFA) (1000 g/ha) is 1 (1=0-20%).
Regarding `N#Cc1cc(Br)c(O)c(-c2cccc(Br)c2)c1` [Compound 1.061], the “percentage damage caused to the plant, ABUTH” value in experiment [1] (1000 g/ha) was 3 (3=41-60%). In addition, in experiment [2] (1000 g/ha), the “percentage damage caused to the plant, AMARE” value is given as 5 (5=81-100%). Also, the “percentage damage caused to the plant, ECHCG” value in experiment [3] (1000 g/ha) was 1 (1=0-20%). The “percentage damage caused to the plant, IPOHE” value in experiment [4] (1000 g/ha) is 3 (3=41-60%). Also, the “percentage damage caused to the plant, SETFA” value in the experiment on Setaria faberi (SETFA) (1000 g/ha) is 1 (1=0-20%).
On to `N#Cc1cc(OC(F)(F)F)c(O)c(-c2cccc(F)c2)c1` [Compound 1.002], for which, in experiment [1] (1000 g/ha), the “percentage damage caused to the plant, ABUTH” value is 4 (4=61-80%). The “percentage damage caused to the plant, AMARE” value in experiment [2] (1000 g/ha) is 5 (5=81-100%). For the same molecule, the “percentage damage caused to the plant, ECHCG” value in experiment [3] (1000 g/ha) is on record as 3 (3=41-60%). Besides, the “percentage damage caused to the plant, IPOHE” value in experiment [4] (1000 g/ha) is on record as 5 (5=81-100%). Moreover, in the experiment on Setaria faberi (SETFA) (1000 g/ha), the “percentage damage caused to the plant, SETFA” value is listed as 2 (2=21-40%).
Take `N#Cc1cc(Br)c(O)c(-c2cccc(Cl)c2)c1` [Compound 1.054]: the “percentage damage caused to the plant, ABUTH” value in experiment [1] (1000 g/ha) was 5 (5=81-100%). Moreover, the “percentage damage caused to the plant, AMARE” value in experiment [2] (1000 g/ha) is 5 (5=81-100%). Moreover, the “percentage damage caused to the plant, ECHCG” value in experiment [3] (1000 g/ha) is 3 (3=41-60%). For the same molecule, the “percentage damage caused to the plant, IPOHE” value in experiment [4] (1000 g/ha) is on record as 2 (2=21-40%). For the same molecule, the “percentage damage caused to the plant, SETFA” value in the experiment with Setaria faberi (SETFA) (1000 g/ha) is listed as 2 (2=21-40%).
Take `N#Cc1cc(-c2cc(F)cc(Cl)c2)c(O)c(C(F)(F)F)c1` [Compound 1.148]: the “percentage damage caused to the plant, ABUTH” value in experiment [1] (applied at 500 gai/ha) is reported as 1 (1=0-20%). The “percentage damage caused to the plant, AMARE” value in experiment [2] (applied at 500 gai/ha) is given as 3 (3=41-60%). For the same molecule, in experiment [3] (applied at 500 gai/ha), the “percentage damage caused to the plant, ECHCG” value is on record as 1 (1=0-20%). Further, in experiment [4] (applied at 500 gai/ha), the “percentage damage caused to the plant, IPOHE” value is listed as 4 (4=61-80%). The “percentage damage caused to the plant, SETFA” value with Setaria faberi (SETFA) (applied at 500 gai/ha) is given as 1 (1=0-20%).
Consider `N#Cc1cc(-c2ccnc(C(F)(F)F)c2)c(O)c(C(F)(F)F)c1` [Compound 1.158], for which the “percentage damage caused to the plant, ABUTH” value in experiment [1] (1000 g/ha) was 1 (1=0-20%). In experiment [2] (1000 g/ha), the “percentage damage caused to the plant, AMARE” value was 4 (4=61-80%). Besides, in experiment [3] (1000 g/ha), the “percentage damage caused to the plant, ECHCG” value is on record as 1 (1=0-20%). Also, in experiment [4] (1000 g/ha), the “percentage damage caused to the plant, IPOHE” value is listed as 2 (2=21-40%). Further, the “percentage damage caused to the plant, SETFA” value in the experiment on Setaria faberi (SETFA) (1000 g/ha) is recorded as 1 (1=0-20%).
With `N#Cc1cc(Br)c(O)c(-c2ccccc2)c1` [Compound 1.047], the “percentage damage caused to the plant, ABUTH” value in experiment [1] (1000 g/ha) was 5 (5=81-100%). The “percentage damage caused to the plant, AMARE” value in experiment [2] (1000 g/ha) is given as 5 (5=81-100%). For the same molecule, the “percentage damage caused to the plant, ECHCG” value in experiment [3] (1000 g/ha) is listed as 1 (1=0-20%). Besides, the “percentage damage caused to the plant, IPOHE” value in experiment [4] (1000 g/ha) is given as 3 (3=41-60%). Moreover, in the experiment on Setaria faberi (SETFA) (1000 g/ha), the “percentage damage caused to the plant, SETFA” value is recorded as 2 (2=21-40%).
Consider `N#Cc1cc(Br)c(O)c(-c2ccc(F)cc2)c1` [Compound 1.048], for which the “percentage damage caused to the plant, ABUTH” value in experiment [1] (1000 g/ha) was 5 (5=81-100%). In experiment [2] (1000 g/ha), the “percentage damage caused to the plant, AMARE” value is recorded as 5 (5=81-100%). In experiment [3] (1000 g/ha), the “percentage damage caused to the plant, ECHCG” value is given as 2 (2=21-40%). For the same molecule, the “percentage damage caused to the plant, IPOHE” value in experiment [4] (1000 g/ha) is on record as 2 (2=21-40%). The “percentage damage caused to the plant, SETFA” value in the experiment with Setaria faberi (SETFA) (1000 g/ha) is given as 2 (2=21-40%).
As to `N#Cc1cc(C#N)c(O)c(-c2cccc(F)c2)c1` [Compound 1.194], in experiment [1] (1000 g/ha), the “percentage damage caused to the plant, ABUTH” value is reported as 3 (3=41-60%). Besides, in experiment [2] (1000 g/ha), the “percentage damage caused to the plant, AMARE” value is 2 (2=21-40%). Further, the “percentage damage caused to the plant, ECHCG” value in experiment [3] (1000 g/ha) was 1 (1=0-20%). For the same molecule, the “percentage damage caused to the plant, IPOHE” value in experiment [4] (1000 g/ha) is listed as 3 (3=41-60%). Besides, in the experiment on Setaria faberi (SETFA) (1000 g/ha), the “percentage damage caused to the plant, SETFA” value is 2 (2=21-40%).
For the molecule `N#Cc1cc(-c2cccc(F)c2)c(O)c(C(F)(F)F)c1` [Compound 1.005], in experiment [1] (1000 g/ha), the “percentage damage caused to the plant, ABUTH” value was 5 (5=81-100%). Also, in experiment [2] (1000 g/ha), the “percentage damage caused to the plant, AMARE” value is given as 4 (4=61-80%). Further, in experiment [3] (1000 g/ha), the “percentage damage caused to the plant, ECHCG” value is given as 4 (4=61-80%). For the same molecule, the “percentage damage caused to the plant, IPOHE” value in experiment [4] (1000 g/ha) is 5 (5=81-100%). For the same molecule, the “percentage damage caused to the plant, SETFA” value in the experiment on Setaria faberi (SETFA) (1000 g/ha) is 1 (1=0-20%).
As to `N#Cc1cncc(-c2cc(C#N)cc(Br)c2O)c1` [Compound 1.067], the “percentage damage caused to the plant, ABUTH” value in experiment [1] (1000 g/ha) is listed as 3 (3=41-60%). In addition, in experiment [2] (1000 g/ha), the “percentage damage caused to the plant, AMARE” value is given as 1 (1=0-20%). In addition, the “percentage damage caused to the plant, ECHCG” value in experiment [3] (1000 g/ha) is recorded as 2 (2=21-40%). In addition, in experiment [4] (1000 g/ha), the “percentage damage caused to the plant, IPOHE” value is given as 2 (2=21-40%). In the experiment on Setaria faberi (SETFA) (1000 g/ha), the “percentage damage caused to the plant, SETFA” value is 2 (2=21-40%).
`N#Cc1cccc(-c2cc(C#N)cc(C(F)(F)F)c2O)c1` [Compound 1.145]: the “percentage damage caused to the plant, ABUTH” value in experiment [1] (applied at 500 gai/ha) was 1 (1=0-20%). Further, the “percentage damage caused to the plant, AMARE” value in experiment [2] (applied at 500 gai/ha) is on record as 1 (1=0-20%). For the same molecule, the “percentage damage caused to the plant, ECHCG” value in experiment [3] (applied at 500 gai/ha) is recorded as 1 (1=0-20%). Besides, the “percentage damage caused to the plant, IPOHE” value in experiment [4] (applied at 500 gai/ha) is recorded as 3 (3=41-60%). The “percentage damage caused to the plant, SETFA” value in the experiment on Setaria faberi (SETFA) (applied at 500 gai/ha) was 1 (1=0-20%).
